This assay addresses IRE1α (Homo sapiens (Human), UniProt O75460, D688N). The assay can be described thus: IRE1α TR-FRET competition binding assay (IRE1α HTRF). As to conditions: TR-FRET competition binding to kinase domain of IRE1α. In a few lines:
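Kinase domain (0.25 nM) pre-bound to 2 nM Eu anti-His antibody for 1 h at 4° C in HEPES pH 7.5/MgCl2/Brij 35/DTT/gamma globulin buffer, then mixed with compounds and 2 nM Alexa 647 ATP-competitive probe. 1 h at room temperature; probe displacement read as TR-FRET (Ex 347 nm, Em 665/615 nm).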
(In TR-FRET formats the signal depends on donor and acceptor labels being close together.)

Structures can show the parent of a compound that is named as a salt.

Sequence of IRE1α (O75460 547-977 D688N): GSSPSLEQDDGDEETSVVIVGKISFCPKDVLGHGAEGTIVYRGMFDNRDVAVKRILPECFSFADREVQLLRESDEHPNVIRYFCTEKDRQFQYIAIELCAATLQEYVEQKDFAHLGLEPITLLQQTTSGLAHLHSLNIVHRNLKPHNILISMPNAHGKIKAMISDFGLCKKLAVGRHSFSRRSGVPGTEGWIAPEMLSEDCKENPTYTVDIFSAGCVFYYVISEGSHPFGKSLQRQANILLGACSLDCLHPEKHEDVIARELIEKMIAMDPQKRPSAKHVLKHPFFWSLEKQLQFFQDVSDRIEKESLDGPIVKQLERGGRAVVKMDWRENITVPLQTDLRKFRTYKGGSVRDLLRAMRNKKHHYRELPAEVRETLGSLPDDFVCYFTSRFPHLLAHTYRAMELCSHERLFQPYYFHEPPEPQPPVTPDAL

`CC(C)n1c(=O)c(-c2ccc(NS(=O)(=O)Cc3ccc(F)cc3)c(F)c2)nc2cnc(N[C@@H]3CC[C@@H](N(C)C)[C@H](F)C3)nc21` (stereo in doubt) [Compound 181A, N-(4-(2-((4-(Dimethylamino)-3-fluorocyclohexyl)amino)-8-isopropyl-7-oxo-7,8-dihydropteridin-6-yl)-2-fluorophenyl)-1-(4-fluorophenyl)methanesulfonamide] yielded an IC50 of 0.16 nM. As to `CC(C)n1c(=O)c(-c2cc(F)c(NS(=O)(=O)Cc3ccccc3)c(F)c2)nc2cnc(N[C@@H]3CNC[C@@H](F)C3)nc21` [Compound 45, N-(2,6-Difluoro-4-(2-(((3S,5S)-5-fluoropiperidin-3-yl)amino)-8-isopropyl-7-oxo-7,8-dihydropteridin-6-yl)phenyl)-1-phenylmethanesulfonamide], the IC50 turned out to be 0.22 nM. The same measure for `CC(C)n1c(=O)c(-c2ccc(NS(=O)(=O)CCC(F)(F)F)c(F)c2)cc2cnc(N[C@H]3CCC[C@H](N(C)C)C3)nc21` [Compound 104, hydrochloride]: 72 nM; for `CC(C)n1c(=O)c(-c2ccc(NS(=O)(=O)CCC(F)(F)F)nc2)cc2cnc(N[C@H]3CC[C@H](N(C)C)CC3)nc21` [Example 215, N-(5-(2-(((1r,4r)-4-(dimethylamino)cyclo-hexyl)amino)-8-isopropyl-7-oxo-7,8-dihydropyrido[2,3-d]-pyrimidin-6-yl)pyridin-2-yl)-3,3,3-trifluoro-propane-1-sulfonamide]: 0.3 nM. For `CC(C)n1c(=O)c(-c2cc(F)c(NS(=O)(=O)CCC(F)(F)F)cc2F)cc2cnc(N[C@H]3CC[C@H](N(C)C)CC3)nc21` [Compound 71, N-(4-(2-(((1,4-trans)-4-(Dimethylamino)cyclohexyl)amino)-8-isopropyl-7-oxo-7,8-dihydropyrido[2,3-d]pyrimidin-6-yl)-2,5-difluorophenyl)-3,3,3-trifluoropropane-1-sulfonamide formate], the half-maximal inhibitory concentration (IC50) stood at 0.25 nM. Consider `CC(C)n1c(=O)c(-c2cc(F)c(NCC(O)C(F)(F)F)c(F)c2F)cc2cnc(N[C@H]3CC[C@H](N(C)C)CC3)nc21` (some centres unmarked) [Compound 99A, 2-(((1r,4r)-4-(Dimethylamino)cyclohexyl)amino)-8-isopropyl-6-(2,3,5-trifluoro-4-((3,3,3-trifluoro-2-hydroxypropyl)amino)phenyl)pyrido[2,3-d]pyrimidin-7(8H)-one], for which the IC50 was 68 nM.

The molecule `CC(C)n1c(=O)c(-c2ccc(NS(=O)(=O)Cc3ccccc3)c(F)c2F)nc2cnc(N[C@@H]3CNC[C@@H](F)C3)nc21` [Compound 43, N-(2,3-Difluoro-4-(2-(((3S,5S)-5-fluoropiperidin-3-yl)amino)-8-isopropyl-7-oxo-7,8-dihydropteridin-6-yl)phenyl)-1-phenylmethanesulfonamide] showed an IC50 of 0.71 nM. Molecule `CC(C)n1c(=O)c(-c2ccc(NS(=O)(=O)CC3CC(F)(F)C3)c(F)c2)nc2cnc(N[C@H]3CC[C@H](N(C)C)[C@@H](F)C3)nc21` (stereo in doubt) [Compound 193A, 1-(3,3-Difluorocyclobutyl)-N-(4-(2-((4-(dimethylamino)-3-fluorocyclohexyl)amino)-8-isopropyl-7-oxo-7,8-dihydropteridin-6-yl)-2-fluorophenyl)methanesulfonamide] returned a concentration for half-maximal inhibition (IC50) of 0.2 nM.

`Cn1c(=O)c(-c2cc(F)c(NS(=O)(=O)CCC(F)(F)F)c3ccccc23)cc2cnc(N[C@H]3CCCNC3)nc21` [Compound 7, (S)-3,3,3-Trifluoro-N-(2-fluoro-4-(8-methyl-7-oxo-2-(piperidin-3-ylamino)-7,8-dihydropyrido[2,3-d]pyrimidin-6-yl)naphthalen-1-yl)propane-1-sulfonamide] showed a concentration for half-maximal inhibition (IC50) of 5.9 nM. The value for `Cc1ccc(CS(=O)(=O)Nc2c(F)cc(-c3nc4cnc(N[C@@H]5CNC[C@@H](F)C5)nc4n(C(C)C)c3=O)c(F)c2F)cc1` [Compound 170, 1-p-Tolyl-N-(2,3,6-trifluoro-4-(2-(((3S,5S)-5-fluoropiperidin-3-yl)amino)-8-isopropyl-7-oxo-7,8-dihydropteridin-6-yl)phenyl)methanesulfonamide hydrochloride] was 0.13 nM; that for `CC(C)n1c(=O)c(-c2ccc(NS(=O)(=O)CCC(F)(F)F)nc2)nc2cnc(N[C@H]3CC[C@H](N(C)CCF)CC3)nc21` [Compound 187, 3,3,3-Trifluoro-N-(5-(2-(((1r,4r)-4-((2-fluoroethyl)(methyl)amino)cyclohexyl)amino)-8-isopropyl-7-oxo-7,8-dihydropteridin-6-yl)pyridin-2-yl)propane-1-sulfonamide] was 0.31 nM. The value for `Cc1ccc(CS(=O)(=O)Nc2c(F)cc(-c3cc4cnc(N[C@H]5CC[C@H](N(C)C)CC5)nc4n(C(C)C)c3=O)cc2F)cc1` [Compound 120, N-(4-(2-(((1r,4r)-4-(Dimethylamino)cyclohexyl)amino)-8-isopropyl-7-oxo-7,8-dihydropyrido[2,3-d]pyrimidin-6-yl)-2,6-difluorophenyl)-1-(p-tolyl)methanesulfonamide] was 1.7 nM. The molecule `CC(C)n1c(=O)c(-c2c(F)cc(NS(=O)(=O)CCC(F)(F)F)c(F)c2F)nc2cnc(N[C@H]3CC[C@H](N(C)C)CC3)nc21` [Compound 172, N-(4-(2-(((1r,4r)-4-(Dimethylamino)cyclohexyl)amino)-8-isopropyl-7-oxo-7,8-dihydropteridin-6-yl)-2,3,5-trifluorophenyl)-3,3,3-trifluoropropane-1-sulfonamide hydrochloride] displayed an IC50 of 0.35 nM. This IC50 lies about 4.9-fold lower than the previous one. As to `Cc1nc(NS(=O)(=O)c2ccccc2C#N)ccc1-c1nc2cnc(N[C@H]3CC[C@H](N(C)C)CC3)nc2n(C(C)C)c1=O` [Example 255, N-[5-[2-[[4-(Dimethylamino)cyclohexyl]amino]-8-isopropyl-7-oxo-pteridin-6-yl]-6-methyl-2-pyridyl]-2-cyano-benzenesulfonamide], the half-maximal inhibitory concentration (IC50) turned out to be 0.2 nM. The same measure for `CC(C)n1c(=O)c(-c2ccc(NS(=O)(=O)CCC(F)(F)F)c(F)c2)cc2cnc(NC3CCC4(CC3)CN(CCF)C4)nc21` [Example 235, 3,3,3-trifluoro-N-(2-fluoro-4-(2-((2-(2-fluoroethyl)-2-azaspiro-[3.5]nonan-7-yl)amino)-8-isopropyl-7-oxo-7,8-dihydropyrido[2,3-d]-pyrimidin-6-yl)phenyl)-propane-1-sulfonamide]: 0.3 nM; for `CC(C)n1c(=O)c(-c2cc(F)c(NS(=O)(=O)c3ccccc3Cl)c(F)c2F)cc2cnc(N[C@@H]3CNC[C@@H](F)C3)nc21` [Compound 61, 2-Chloro-N-(2,3,6-trifluoro-4-(2-(((3S,5S)-5-fluoropiperidin-3-yl)amino)-8-isopropyl-7-oxo-7,8-dihydropyrido[2,3-d]pyrimidin-6-yl)phenyl)benzenesulfonamide hydrochloride]: 0.31 nM. Turning to `CC(C)n1c(=O)c(-c2cc(F)c(NC(=O)[C@@H]3C[C@@H]3F)c(F)c2F)cc2cnc(N[C@H]3CC[C@H](N(C)C)CC3)nc21` [Compound 96, (1S,2S)—N-(4-(2-(((r,4r)-4-(dimethylamino)cyclohexyl)amino)-8-isopropyl-7-oxo-7,8-dihydropyrido[2,3-d]pyrimidin-6-yl)-2,3,6-trifluorophenyl)-2-fluorocyclopropane-1-carboxamide], the concentration for half-maximal inhibition (IC50) was determined as 1.6 nM. For `CC(C)n1c(=O)c(-c2ccc(NS(=O)(=O)Cc3ccccc3)c(F)c2)nc2cnc(N[C@@H]3CNC[C@@H](F)C3)nc21` [Compound 44, N-(2-Fluoro-4-(2-(((3S,5S)-5-fluoropiperidin-3-yl)amino)-8-isopropyl-7-oxo-7,8-dihydropteridin-6-yl)phenyl)-1-phenylmethanesulfonamide], the IC50 was 0.28 nM.

`COCCN(C)[C@H]1CC[C@H](Nc2ncc3cc(-c4ccc(NS(=O)(=O)CCC(F)(F)F)c(F)c4)c(=O)n(C(C)C)c3n2)CC1` [Compound 138, 3,3,3-Trifluoro-N-(2-fluoro-4-(8-isopropyl-2-(((1r,4r)-4-((2-methoxyethyl)(methyl)amino)cyclohexyl)amino)-7-oxo-7,8-dihydropyrido[2,3-d]pyrimidin-6-yl)phenyl)propane-1-sulfonamide] yielded an IC50 of 0.19 nM. `CC(C)n1c(=O)c(-c2ccc(NS(=O)(=O)CC3CCCCC3)c(F)c2)nc2cnc(N[C@H]3CC[C@H](N(C)C)CC3)nc21` [Example 269, 1-Cyclohexyl-N-[4-[2-[[4-(dimethylamino)cyclohexyl]amino]-8-isopropyl-7-oxo-pteridin-6-yl]-2-fluoro-phenyl]methanesulfonamide] gave a concentration for half-maximal inhibition (IC50) of 0.2 nM. The IC50 values of the last two molecules are within 1.5-fold of each other. Consider `COc1nc(NS(=O)(=O)c2ccccc2Cl)ccc1-c1cc2cnc(N[C@H]3CC[C@H](N(C)C)CC3)nc2n(C(C)C)c1=O` [Compound 131, 2-Chloro-N-(5-(2-(((1r,4r)-4-(dimethylamino)cyclohexyl)amino)-8-isopropyl-7-oxo-7,8-dihydropyrido[2,3-d]pyrimidin-6-yl)-6-methoxypyridin-2-yl)benzenesulfonamide], for which the IC50 was 0.21 nM. Molecule `CC(C)n1c(=O)c(-c2ccc(NS(=O)(=O)C3CC4CCC3C4)c(F)c2)nc2cnc(N[C@H]3CC[C@H](N(C)C)CC3)nc21` (some centres unmarked) [Example 281, N-(4-(2-(((1r, 4r)-4-(dimethylamino)cyclohexyl)amino)-8-isopropyl-7-oxo-7,8-dihydropteridin-6-yl)-2-fluorophenyl)bicyclo[2.2.1]heptane-2-sulfonamide] displayed an IC50 of 0.5 nM. Take `CC(C)n1c(=O)c(-c2ccc(NS(=O)(=O)Cc3ccccc3F)cn2)cc2cnc(N[C@H]3CC[C@H](N(C)C)CC3)nc21` [Compound 94, N-(6-(2-(((1r,4r)-4-(Dimethylamino)cyclohexyl)amino)-8-isopropyl-7-oxo-7,8-dihydropyrido[2,3-d]pyrimidin-6-yl)pyridin-3-yl)-1-(2-fluorophenyl)methanesulfonamide]: the 50% inhibitory concentration (IC50) was determined as 0.27 nM. Compared with the last molecule, the IC50 is about 1.9-fold lower.

As usually defined, the IC50 is the concentration that inhibits the measured activity by half.

Source of the values: patent US12344603B2 (Genentech, Inc., priority 2020, dated 2025).
